This is an account of results in patent publication US20200317639A1, “POLYMORPHS OF N-[(2,6-DIFLUORO-3-METHOXYPHENYL)METHYL]-3-(METHOXYMETHYL)-1-({4-[(2-OXOPYRIDIN-1YL)METHYL]PHENYL}METHYL)PYRAZOLE-4-CARBOXAMIDE” (KALVISTA PHARMACEUTICALS LIMITED, priority 2016, published 2020).

This data set can be described thus: Gravimetric Vapour Sorption (GVS). Type of data set: physicochemical. Here is the method: Gravimetric Vapour Sorption (GVS) data were collected using the following method: Approximately 10 mg of sample was placed into a wire-mesh vapour sorption balance pan and loaded into an ‘IgaSorp’ vapour sorption balance (Hiden Analytical Instruments). The sample was then dried by maintaining a 0% humidity environment until no further weight change was recorded. Subsequently, the sample was then subjected to a ramping profile from 0-90% RH at 10% RH increments, maintaining the sample at each step until equilibration had been attained (99% step completion). Upon reaching equilibration, the % RH within the apparatus was ramped to the next step and the equilibration procedure repeated. After completion of the sorption cycle, the sample was then dried using the same procedure. The weight change during the sorption/desorption cycles were then monitored, allowing for the hygroscopic nature of the sample to be determined.

Turning to `COCc1nn(Cc2ccc(Cn3ccccc3=O)cc2)cc1C(=O)NCc1c(F)ccc(OC)c1F` [Form A, N-[(2,6-Difluoro-3-methoxyphenyl)methyl]-3-(methoxymethyl)-1-({4-[(2-oxopyridin-1-yl)methyl]phenyl}methyl)pyrazole-4-carboxamide], the “%-Wt (dry basis), Desorption” value is reported as 1.174 %-Wt (0.01 %-RH); 2.121 %-Wt (5.002 %-RH); 3.537 %-Wt (15.039 %-RH); 5.219 %-Wt (25.192 %-RH); 6.774 %-Wt (34.985 %-RH); 7.808 %-Wt (44.978 %-RH). Also, the “%-Wt (dry basis), Desorption” value reads like this: (55.023 %-RH) 8.516 %-Wt; (65.019 %-RH) 9.185 %-Wt; (75.011 %-RH) 9.927 %-Wt; (85.009 %-RH) 10.43 %-Wt; (89.98 %-RH) 10.71 %-Wt. Moreover, the “%-Wt (dry basis), Adsorption” value by setting is: (0.012 %-RH) 0.003304 %-Wt; (0.013 %-RH) 0.004135 %-Wt; (10.022 %-RH) 0.3314 %-Wt; (20.014 %-RH) 0.7833 %-Wt; (30.014 %-RH) 1.246 %-Wt; (40.009 %-RH) 1.892 %-Wt. For the same compound, the “%-Wt (dry basis), Adsorption” value is, setting by setting: (49.999 %-RH) 2.49 %-Wt; (59.993 %-RH) 3.239 %-Wt; (69.992 %-RH) 4.507 %-Wt; (79.981 %-RH) 7.117 %-Wt; (89.98 %-RH) 10.71 %-Wt.
